Where “and” joins values, the source holds several entries; their conditions need not be identical. Identical values can stand only once.
How the values were obtained:
[1] = cn = amount concentration of the nth substance listed, in mol/dm3; details: 101.33 kPa, Liquid, Alternating current cell with electrodes
[2] = mn = molality of the nth substance listed, in mol/kg; details: 101.33 kPa, Liquid, m1 = 0.05

CCCCCCCCCCCCOS(=O)(=O)[O-].[Na+] [sodium dodecyl sulfate] + O
electrical conductivity [S/m], [1]
Details	288.15 K	293.15 K	298.15 K	303.15 K	308.15 K
c1 = 0.003022	0.0165	0.0184	0.0207	0.0234	0.0258
c1 = 0.004552	0.0247	0.0279	0.0313	0.0349	0.0386
c1 = 0.005661	0.0304	0.0344	0.0388	0.0431	0.0477
c1 = 0.006744	0.0361	0.0408	0.0458	0.051	0.0564
c1 = 0.007679	0.0408	0.0461	0.0517	0.0577	0.0638
c1 = 0.008765	0.0447	0.0502	0.0565	0.0632	0.0704
c1 = 0.009933	0.0474	0.0532	0.06	0.0671	0.0751
c1 = 0.0111	0.0497	0.0559	0.0632	0.0708	0.0793
c1 = 0.01221	0.0518	0.0584	0.0661	0.074	0.083
c1 = 0.01335	0.0538	0.0609	0.0688	0.0774	0.0869
c1 = 0.01444	0.0558	0.0632	0.0715	0.0805	0.0904
c1 = 0.0156	0.058	0.0657	0.0745	0.084	0.0944
c1 = 0.01674	0.0601	0.0683	0.0775	0.0873	0.098

[2]
Details	mass density
298.15 K	999.198 kg/m3 and 999.155 kg/m3
303.15 K	997.657 kg/m3 and 997.661 kg/m3
308.15 K	995.989 kg/m3 and 995.962 kg/m3
313.15 K	994.178 kg/m3 and 994.186 kg/m3

From the NIST ThermoML archive (doi:10.1021/je100068y)
